# Experimental data: ChEMBL document CHEMBL1201862, “PubChem BioAssay data set” (2004)
# Activity calls are given as the source filed them.
# Tests used:
# [1] = tested on: Vero; test: cells; type: functional; details: Chlorocebus sabaeus
# [2] = tested on: Vero; test: cells; type: functional, cell-based; details: Chlorocebus sabaeus
# [3] = biological target: T1, Microphthalmia-associated transcription factor (Homo sapiens, UniProt O75030); test: TRPM1 promoter luciferase signal decrease, dose response, MITF inhibitor project, cell-based, SK-MEL-5, cherry-picked, set 3 (AID 493073); type: functional
# T1 sequence (O75030 whole entry): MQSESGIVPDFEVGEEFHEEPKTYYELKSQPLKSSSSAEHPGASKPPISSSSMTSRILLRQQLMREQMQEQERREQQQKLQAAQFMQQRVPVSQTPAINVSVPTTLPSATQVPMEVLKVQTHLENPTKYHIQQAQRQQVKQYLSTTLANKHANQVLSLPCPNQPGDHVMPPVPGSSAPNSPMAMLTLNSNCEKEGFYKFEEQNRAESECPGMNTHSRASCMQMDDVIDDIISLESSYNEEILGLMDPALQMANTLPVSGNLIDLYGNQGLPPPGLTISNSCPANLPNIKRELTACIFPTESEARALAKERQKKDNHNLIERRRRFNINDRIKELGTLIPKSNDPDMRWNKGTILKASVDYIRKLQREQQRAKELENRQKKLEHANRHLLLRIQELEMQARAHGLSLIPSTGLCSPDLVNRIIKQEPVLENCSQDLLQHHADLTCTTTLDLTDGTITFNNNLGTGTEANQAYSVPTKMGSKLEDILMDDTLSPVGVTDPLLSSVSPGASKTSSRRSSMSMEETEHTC
# [4] = biological target: T2, Voltage-gated N-type calcium channel alpha-1B subunit/Amyloid beta A4 precursor protein-binding family A member 1 (Homo sapiens, UniProt Q00975+Q02410); type: protein assay
# T2 sequence (Q00975 whole entry): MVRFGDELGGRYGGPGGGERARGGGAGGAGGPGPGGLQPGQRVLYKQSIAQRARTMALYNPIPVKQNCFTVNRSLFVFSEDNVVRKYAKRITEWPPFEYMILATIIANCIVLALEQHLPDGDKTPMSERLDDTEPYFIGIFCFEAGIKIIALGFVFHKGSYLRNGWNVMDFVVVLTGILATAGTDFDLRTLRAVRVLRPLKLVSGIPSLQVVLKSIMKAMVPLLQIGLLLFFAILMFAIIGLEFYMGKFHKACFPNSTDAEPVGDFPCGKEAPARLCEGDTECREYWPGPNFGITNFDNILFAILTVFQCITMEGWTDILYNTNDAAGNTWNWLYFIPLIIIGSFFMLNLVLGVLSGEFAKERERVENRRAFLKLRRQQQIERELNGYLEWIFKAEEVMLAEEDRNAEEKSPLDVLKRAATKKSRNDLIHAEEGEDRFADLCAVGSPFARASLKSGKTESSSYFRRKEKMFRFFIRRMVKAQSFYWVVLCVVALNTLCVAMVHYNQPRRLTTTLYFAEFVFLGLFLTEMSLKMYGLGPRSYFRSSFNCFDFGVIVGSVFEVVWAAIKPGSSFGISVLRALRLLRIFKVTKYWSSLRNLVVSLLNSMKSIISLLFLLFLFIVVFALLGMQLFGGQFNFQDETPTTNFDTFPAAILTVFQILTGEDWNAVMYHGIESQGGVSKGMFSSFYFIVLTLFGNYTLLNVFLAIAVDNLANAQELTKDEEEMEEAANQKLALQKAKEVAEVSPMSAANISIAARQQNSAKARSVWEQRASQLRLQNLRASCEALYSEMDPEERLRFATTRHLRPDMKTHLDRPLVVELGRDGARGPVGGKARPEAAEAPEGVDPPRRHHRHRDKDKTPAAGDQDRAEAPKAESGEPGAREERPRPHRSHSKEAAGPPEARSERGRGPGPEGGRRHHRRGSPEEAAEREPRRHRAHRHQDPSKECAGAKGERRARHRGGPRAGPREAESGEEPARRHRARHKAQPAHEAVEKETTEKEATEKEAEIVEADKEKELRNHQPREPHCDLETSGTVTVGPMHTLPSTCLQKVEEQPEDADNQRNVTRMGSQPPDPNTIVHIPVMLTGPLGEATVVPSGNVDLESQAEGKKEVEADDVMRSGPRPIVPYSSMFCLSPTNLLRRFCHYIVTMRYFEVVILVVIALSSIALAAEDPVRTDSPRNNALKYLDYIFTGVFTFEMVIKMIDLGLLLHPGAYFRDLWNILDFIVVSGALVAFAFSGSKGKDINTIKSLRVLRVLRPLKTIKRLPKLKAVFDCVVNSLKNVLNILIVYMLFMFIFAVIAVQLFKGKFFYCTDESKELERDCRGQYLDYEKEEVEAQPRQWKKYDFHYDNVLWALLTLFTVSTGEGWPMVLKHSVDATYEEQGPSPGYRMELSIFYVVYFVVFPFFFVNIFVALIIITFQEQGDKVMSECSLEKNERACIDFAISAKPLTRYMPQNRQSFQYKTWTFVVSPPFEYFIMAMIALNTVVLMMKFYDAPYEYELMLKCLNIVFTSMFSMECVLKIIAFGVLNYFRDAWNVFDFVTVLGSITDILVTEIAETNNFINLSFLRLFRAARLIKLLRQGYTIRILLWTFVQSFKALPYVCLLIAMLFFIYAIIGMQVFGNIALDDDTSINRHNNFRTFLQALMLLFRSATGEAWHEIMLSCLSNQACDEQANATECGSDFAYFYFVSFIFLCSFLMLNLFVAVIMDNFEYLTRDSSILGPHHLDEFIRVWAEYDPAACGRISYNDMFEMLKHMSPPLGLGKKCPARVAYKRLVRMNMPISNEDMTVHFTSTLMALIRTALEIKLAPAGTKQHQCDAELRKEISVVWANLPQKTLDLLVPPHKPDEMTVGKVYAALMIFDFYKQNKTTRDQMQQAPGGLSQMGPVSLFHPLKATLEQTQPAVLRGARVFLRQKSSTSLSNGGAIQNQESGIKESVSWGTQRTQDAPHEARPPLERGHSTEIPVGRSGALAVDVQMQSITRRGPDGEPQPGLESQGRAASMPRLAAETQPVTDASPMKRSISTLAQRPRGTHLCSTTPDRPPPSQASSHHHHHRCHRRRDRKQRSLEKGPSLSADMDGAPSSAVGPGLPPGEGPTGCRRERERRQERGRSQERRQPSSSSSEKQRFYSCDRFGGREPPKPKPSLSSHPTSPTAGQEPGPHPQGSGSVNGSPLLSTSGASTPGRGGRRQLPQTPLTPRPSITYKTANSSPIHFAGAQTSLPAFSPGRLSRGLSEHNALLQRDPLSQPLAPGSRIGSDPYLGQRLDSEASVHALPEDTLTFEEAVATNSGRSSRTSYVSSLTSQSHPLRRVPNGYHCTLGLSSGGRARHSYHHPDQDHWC
# T2 sequence (Q02410 whole entry): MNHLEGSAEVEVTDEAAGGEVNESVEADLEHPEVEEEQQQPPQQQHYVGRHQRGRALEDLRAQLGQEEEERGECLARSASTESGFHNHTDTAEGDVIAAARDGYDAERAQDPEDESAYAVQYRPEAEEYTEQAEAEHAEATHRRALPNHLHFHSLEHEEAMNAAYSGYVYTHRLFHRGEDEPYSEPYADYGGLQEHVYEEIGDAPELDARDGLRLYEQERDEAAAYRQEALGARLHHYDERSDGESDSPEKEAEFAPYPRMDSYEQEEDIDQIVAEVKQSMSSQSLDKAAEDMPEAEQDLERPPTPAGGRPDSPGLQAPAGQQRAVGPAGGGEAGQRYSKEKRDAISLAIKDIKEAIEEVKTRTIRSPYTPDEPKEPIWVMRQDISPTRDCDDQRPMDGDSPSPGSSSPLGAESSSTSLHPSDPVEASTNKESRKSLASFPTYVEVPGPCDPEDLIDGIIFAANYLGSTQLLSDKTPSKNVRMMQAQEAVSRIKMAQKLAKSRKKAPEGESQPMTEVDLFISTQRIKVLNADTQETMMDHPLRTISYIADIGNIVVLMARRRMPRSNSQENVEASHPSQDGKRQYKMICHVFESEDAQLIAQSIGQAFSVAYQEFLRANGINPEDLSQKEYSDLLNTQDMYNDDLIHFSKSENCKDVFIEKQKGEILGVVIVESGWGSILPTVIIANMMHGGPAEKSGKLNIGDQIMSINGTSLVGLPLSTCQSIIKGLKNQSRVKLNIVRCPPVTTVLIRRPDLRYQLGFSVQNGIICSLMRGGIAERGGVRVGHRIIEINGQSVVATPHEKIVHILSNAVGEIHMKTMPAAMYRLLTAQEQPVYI
# [5] = biological target: T2, Voltage-gated N-type calcium channel alpha-1B subunit/Amyloid beta A4 precursor protein-binding family A member 1; type: protein assay; remark: listed apart in the source
# [6] = biological target: T3, Serine/threonine-protein phosphatase (Candida dubliniensis (strain CD36 / CBS 7987 / NCPF 3949 / NRRLY-17841) (Yeast), UniProt B9W6M3); test: calcineurin pathway inhibitors in yeast reporter, dose response, S. cerevisiae, CDRE-lacZ, luminescence, secondary (AID 2388); type: functional, cell-based;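 further: yeast reporter cells carrying a calcineurin-responsive lacZ construct stimulated with calcium chloride; luminescent beta-galactosidase reporter signal in whole cells rather than isolated phosphatase activity; potency for inhibition where a drop in reporter signal means calcineurin blockade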
# T3 sequence (B9W6M3 whole entry): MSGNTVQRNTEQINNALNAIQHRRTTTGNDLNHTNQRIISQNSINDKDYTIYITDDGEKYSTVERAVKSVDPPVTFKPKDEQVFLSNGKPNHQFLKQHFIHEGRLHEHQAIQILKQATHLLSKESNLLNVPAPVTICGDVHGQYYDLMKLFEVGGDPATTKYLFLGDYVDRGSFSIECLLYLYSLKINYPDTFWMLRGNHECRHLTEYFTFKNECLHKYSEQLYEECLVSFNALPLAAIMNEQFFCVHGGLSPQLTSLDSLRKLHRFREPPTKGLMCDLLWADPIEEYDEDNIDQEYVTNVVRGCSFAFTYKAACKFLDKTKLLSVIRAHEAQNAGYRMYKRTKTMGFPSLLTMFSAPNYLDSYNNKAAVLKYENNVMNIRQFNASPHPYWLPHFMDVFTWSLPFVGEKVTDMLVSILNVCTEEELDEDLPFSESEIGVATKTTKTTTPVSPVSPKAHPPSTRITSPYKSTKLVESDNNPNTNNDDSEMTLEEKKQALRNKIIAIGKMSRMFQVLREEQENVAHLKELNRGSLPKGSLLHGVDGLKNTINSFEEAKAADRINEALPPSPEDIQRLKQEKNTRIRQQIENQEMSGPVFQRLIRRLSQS
# [7] = NIH-3T3 fibroblast cytotoxicity, dose response, cytotoxicity control, cell-based, fluorescence, Alamar Blue, secondary assay (AID 2327); type: functional;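 further: NIH-3T3 mouse fibroblasts cultured with fluconazole at 8 µg/mL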
# [8] = biological target: ATP-dependent molecular chaperone HSP82 (Candida albicans (strain WO-1) (Yeast), UniProt C4YTQ8); test: loss of DOC-induced GRE-beta-galactosidase reporter signal, dose response, Hsp90 inhibitor project, S. cerevisiae, luminescence (AID 2400); type: functional, cell-based;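 further: beta-galactosidase luminescence from glucocorticoid response element reporter as proxy for Hsp90 function; inhibitor potency where signal loss means Hsp90 inhibition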
# [9] = C. albicans growth with fluconazole, confirmation, fluorescence, retest (AID 2467); type: functional, cell-based
# [10] = biological target: Cytochrome P450 2D6 (Homo sapiens, UniProt P10635);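 further: CYP2D6 member of a cytochrome P450 panel assay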
# Sequence of Cytochrome P450 2D6 (P10635 whole entry): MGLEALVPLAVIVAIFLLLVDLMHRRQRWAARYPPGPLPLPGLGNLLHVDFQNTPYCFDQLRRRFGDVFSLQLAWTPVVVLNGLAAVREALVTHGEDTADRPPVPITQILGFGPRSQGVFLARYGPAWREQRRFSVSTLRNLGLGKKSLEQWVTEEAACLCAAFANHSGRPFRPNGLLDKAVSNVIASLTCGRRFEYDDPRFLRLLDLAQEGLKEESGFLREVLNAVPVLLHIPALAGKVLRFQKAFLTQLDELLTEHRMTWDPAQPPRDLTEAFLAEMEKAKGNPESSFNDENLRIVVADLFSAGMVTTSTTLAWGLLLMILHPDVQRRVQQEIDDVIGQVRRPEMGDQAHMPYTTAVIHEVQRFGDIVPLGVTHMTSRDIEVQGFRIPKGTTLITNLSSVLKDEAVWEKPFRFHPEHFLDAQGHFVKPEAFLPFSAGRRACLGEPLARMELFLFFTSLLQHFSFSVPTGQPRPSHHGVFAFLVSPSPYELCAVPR
# [11] = cytotoxicity toward NIH3T3 fibroblasts, dose response, counter-screen, cell-based, ATP luminescence, mouse fibroblasts (AID 2010); type: functional;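 further: cells exposed to compound for about 90 hours before reading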
# [12] = biological target: T4, Histone-lysine N-methyltransferase NSD2 (Homo sapiens, UniProt O96028); type: biochemical
# T4 sequence (O96028 whole entry): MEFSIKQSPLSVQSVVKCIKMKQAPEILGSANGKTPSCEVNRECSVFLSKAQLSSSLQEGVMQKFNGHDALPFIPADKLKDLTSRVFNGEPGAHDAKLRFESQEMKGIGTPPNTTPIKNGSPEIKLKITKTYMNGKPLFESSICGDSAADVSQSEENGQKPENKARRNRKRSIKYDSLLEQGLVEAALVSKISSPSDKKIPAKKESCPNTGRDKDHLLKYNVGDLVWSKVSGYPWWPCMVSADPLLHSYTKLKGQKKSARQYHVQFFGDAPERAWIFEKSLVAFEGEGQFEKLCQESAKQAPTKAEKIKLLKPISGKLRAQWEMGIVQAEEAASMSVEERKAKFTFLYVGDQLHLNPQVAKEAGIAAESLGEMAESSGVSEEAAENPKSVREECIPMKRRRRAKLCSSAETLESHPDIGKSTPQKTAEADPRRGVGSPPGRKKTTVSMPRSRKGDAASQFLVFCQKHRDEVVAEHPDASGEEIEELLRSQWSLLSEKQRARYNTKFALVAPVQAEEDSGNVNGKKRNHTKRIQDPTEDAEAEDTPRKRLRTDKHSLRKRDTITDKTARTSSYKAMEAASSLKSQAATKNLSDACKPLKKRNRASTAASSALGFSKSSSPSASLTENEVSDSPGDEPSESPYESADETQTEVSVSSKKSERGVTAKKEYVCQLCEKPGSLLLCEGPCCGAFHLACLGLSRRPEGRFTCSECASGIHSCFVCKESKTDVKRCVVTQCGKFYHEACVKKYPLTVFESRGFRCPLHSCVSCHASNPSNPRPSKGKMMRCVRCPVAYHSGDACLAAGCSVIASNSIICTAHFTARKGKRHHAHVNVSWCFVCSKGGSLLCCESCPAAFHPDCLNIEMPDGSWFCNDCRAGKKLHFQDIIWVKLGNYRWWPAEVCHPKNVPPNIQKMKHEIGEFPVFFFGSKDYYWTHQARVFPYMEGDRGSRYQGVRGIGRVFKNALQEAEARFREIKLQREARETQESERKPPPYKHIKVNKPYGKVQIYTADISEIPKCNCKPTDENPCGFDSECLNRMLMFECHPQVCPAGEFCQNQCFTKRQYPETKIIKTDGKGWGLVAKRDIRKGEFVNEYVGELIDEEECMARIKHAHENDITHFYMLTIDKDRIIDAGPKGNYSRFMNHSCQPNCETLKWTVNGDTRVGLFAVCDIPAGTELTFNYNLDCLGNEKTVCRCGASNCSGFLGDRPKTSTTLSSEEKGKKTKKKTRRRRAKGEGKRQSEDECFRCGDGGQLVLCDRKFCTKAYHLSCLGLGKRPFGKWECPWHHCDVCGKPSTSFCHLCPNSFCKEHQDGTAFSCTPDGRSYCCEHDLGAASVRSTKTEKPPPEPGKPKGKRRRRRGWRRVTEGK
# [13] = inhibitors of intracellular T. cruzi replication, confirmation, NIH3T3 host cells, beta-gal luminescence (AID 2044); type: functional, cell-based;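 further: intracellular parasites grown in NIH/3T3 mouse fibroblasts as host cells; luminescent beta-galactosidase reporter signal from transgenic T. cruzi replicating inside host cells; inhibitors lower the luminescence signal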
# [14] = biological target: Genome polyprotein (dengue virus type 2, UniProt P29990); test: Dengue-2 NS5 methyltransferase inhibitors, primary screen, biochemical, confirmation dose response (AID 588689); type: functional
# Sequence of Genome polyprotein (P29990 2492-3391 limits assumed): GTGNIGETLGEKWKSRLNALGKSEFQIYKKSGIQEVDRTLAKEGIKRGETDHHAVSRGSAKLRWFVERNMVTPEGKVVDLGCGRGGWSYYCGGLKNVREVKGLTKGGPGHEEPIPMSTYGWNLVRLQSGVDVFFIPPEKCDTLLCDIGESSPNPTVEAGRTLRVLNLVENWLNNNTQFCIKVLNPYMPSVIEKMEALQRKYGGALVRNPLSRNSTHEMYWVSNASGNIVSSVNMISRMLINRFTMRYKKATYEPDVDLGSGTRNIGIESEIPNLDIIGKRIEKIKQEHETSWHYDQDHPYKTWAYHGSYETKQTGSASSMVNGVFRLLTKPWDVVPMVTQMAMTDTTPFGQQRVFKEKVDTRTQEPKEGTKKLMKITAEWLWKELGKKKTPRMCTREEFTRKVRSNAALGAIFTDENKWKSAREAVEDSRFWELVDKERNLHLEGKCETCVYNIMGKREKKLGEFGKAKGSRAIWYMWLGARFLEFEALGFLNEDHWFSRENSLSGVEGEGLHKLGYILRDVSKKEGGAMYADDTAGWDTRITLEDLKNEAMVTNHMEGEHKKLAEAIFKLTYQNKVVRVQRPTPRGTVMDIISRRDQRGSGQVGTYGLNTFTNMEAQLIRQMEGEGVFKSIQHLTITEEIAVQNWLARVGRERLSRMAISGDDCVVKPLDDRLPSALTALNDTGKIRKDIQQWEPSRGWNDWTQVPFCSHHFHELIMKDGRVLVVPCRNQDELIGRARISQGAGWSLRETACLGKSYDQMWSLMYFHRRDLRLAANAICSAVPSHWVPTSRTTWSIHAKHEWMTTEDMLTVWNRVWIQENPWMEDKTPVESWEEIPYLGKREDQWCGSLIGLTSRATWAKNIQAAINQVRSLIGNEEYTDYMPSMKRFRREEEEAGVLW
# [15] = biological target: T5, Short transient receptor potential channel 4 (Mus musculus, UniProt Q9QUQ5); test: mouse TRPC4 channel inhibitors, dose response, cell-based, HEK293 TRPC4/mu-opioid, Fluo-4 calcium (AID 434942); type: functional;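 further: potency of inhibitors blocking the TRPC4 calcium response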
# T5 sequence (Q9QUQ5 whole entry): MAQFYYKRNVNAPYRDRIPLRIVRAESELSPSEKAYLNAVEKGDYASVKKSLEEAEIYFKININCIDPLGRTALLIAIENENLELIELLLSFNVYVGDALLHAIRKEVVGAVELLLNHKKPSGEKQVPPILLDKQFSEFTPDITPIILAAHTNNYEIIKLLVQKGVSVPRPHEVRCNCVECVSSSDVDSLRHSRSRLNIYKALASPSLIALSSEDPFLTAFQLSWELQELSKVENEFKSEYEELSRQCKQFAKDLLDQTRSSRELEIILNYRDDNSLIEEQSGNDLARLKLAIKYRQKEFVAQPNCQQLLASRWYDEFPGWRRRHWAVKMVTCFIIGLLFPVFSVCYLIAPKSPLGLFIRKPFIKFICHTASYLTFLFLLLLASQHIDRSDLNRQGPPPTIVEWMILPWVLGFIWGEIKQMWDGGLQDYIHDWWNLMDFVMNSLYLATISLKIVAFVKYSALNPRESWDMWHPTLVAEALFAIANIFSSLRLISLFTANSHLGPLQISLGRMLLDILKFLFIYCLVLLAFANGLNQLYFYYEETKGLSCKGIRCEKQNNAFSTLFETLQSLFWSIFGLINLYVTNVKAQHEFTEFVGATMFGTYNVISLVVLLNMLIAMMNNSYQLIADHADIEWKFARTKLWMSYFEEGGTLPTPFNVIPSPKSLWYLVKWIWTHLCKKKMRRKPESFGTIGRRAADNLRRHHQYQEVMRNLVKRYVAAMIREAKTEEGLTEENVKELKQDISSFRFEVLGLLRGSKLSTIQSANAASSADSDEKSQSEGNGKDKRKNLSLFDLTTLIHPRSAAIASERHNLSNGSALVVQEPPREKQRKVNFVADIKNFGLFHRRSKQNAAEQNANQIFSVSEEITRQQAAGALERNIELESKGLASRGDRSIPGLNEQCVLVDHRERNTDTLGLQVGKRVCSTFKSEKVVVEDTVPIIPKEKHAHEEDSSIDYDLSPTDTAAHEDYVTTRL
# [16] = biological target: Eukaryotic translation initiation factor 4E (Mus musculus, UniProt P63073); test: eIF4E–eIF4G protein interaction inhibitors, dose response, biochemical, TR-FRET (AID 855); type: functional;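 further: potency for disrupting eIF4E binding to eIF4GI seen as loss of FRET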
# [17] = biological target: Cytochrome P450 2C9 (Homo sapiens, UniProt P11712)
# Sequence of Cytochrome P450 2C9 (P11712 whole entry): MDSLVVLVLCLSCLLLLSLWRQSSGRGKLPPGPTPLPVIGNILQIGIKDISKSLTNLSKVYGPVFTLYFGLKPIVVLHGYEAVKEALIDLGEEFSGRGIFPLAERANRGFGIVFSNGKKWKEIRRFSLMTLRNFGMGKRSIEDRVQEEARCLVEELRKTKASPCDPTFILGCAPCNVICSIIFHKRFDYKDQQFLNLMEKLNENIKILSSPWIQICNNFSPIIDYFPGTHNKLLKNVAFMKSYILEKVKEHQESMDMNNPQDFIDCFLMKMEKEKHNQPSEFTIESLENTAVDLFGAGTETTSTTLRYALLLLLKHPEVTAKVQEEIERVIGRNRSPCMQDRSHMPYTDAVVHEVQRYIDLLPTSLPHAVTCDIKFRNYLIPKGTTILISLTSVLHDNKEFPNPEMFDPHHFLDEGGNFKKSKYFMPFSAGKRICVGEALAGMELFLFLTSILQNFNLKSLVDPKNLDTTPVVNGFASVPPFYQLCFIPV
# [18] = inhibitors of SNCA 5'UTR-driven reporter translation, confirmation, H4 neuroglioma cells, luminescence (AID 1988); type: functional, cell-based
# [19] = biological target: Nonstructural protein 1 (Influenza A virus, UniProt Q194T2); type: functional, Influenza A virus (A/California/07/2009(H1N1))
# [20] = cells; type: functional, cell-based
# [21] = cells; type: functional, cell-based; remark: listed apart in the source
# [22] = inhibitors of firefly luciferase expression or activity, dose response, H4 neuroglioma cells, luminescence (AID 1990); type: functional, cell-based
# [23] = Luminescence Cell-Based Dose Response HTS to Identify Inhibitors of 5'UTR Stem-Loop Driven Prion Protein mRNA Translation in H4 Neuroglioblastoma Cells. [Related pubchem assays: 1827 (Project Summary), 1813 (Primary HTS)]; type: functional
compound,measurement,setting,value
CC(C)C(CCNC1CCN(C)CC1)c1ccc(Cl)cc1 (stereo not given),CC50,[1],20.4 µM (active)
same,IC50,[2],> 25 µM (active)
same,AC50,[3],11.9 µM (active)
COc1cc(NC(=O)c2ccccc2)ccc1NC(=O)c1cc2ccccc2o1,IC50,[4],> 50 µM (inactive)
same,IC50,[5],> 56.8 µM (not active)
O=C(c1cc2c(s1)CCCCC2)N1CCN(c2ncccn2)CC1,EC50,[6],> 180 µM (inactive)
same,EC50,[7],> 160 µM (inconclusive)
same,EC50,[8],23.9 µM (active)
same,EC50,[9],1.2 µM (active)
NC(=O)c1c(NC(=O)c2ccco2)sc2c1CCC2,EC50,[6],> 180 µM (inactive)
same,EC50,[7],> 150 µM (inactive)
same,EC50,[8],> 150 µM (inactive)
same,EC50,[9],0.654 µM (inconclusive)
CCOC(=O)c1cnc(-c2ccccc2)nc1Oc1ccc(Cl)cc1,AC50,[10],inconclusive
Cc1cccn2cc(COc3ccc(-c4ccccc4)cc3)nc12,CC50,[1],> 25 µM (active)
same,IC50,[2],11.6 µM (active)
COc1ccc(N2C(=O)NC(=O)/C(=C\c3ccc([N+](=O)[O-])s3)C2=O)cc1,EC50,[11],> 60 µM (inconclusive)
same,AC50,[12],> 20 µM (inactive)
same,EC50,[13],3.77 µM (active)
same,IC50,[4],10.3 µM (active)
same,IC50,[5],18.2 µM (active)
same,IC50,[14],39.1 µM (active)
CCOc1cc(CNCCCN2CCOCC2)ccc1OCC(=O)Nc1cccc2ccccc12,CC50,[1],> 25 µM (active)
same,IC50,[2],18.6 µM (active)
CC(C)CN(CC(C)C)c1ccc(C=C2C(=O)NC(=S)NC2=O)cc1[N+](=O)[O-],EC50,[15],1.88 µM (active)
same,IC50,[16],42.1 µM (inactive)
same,IC50,[14],15.9 µM (active)
CCN1CCCC1CNC(=O)C(=O)Nc1ccccc1OC (stereo not given),AC50,[10],inconclusive
same,AC50,[17],inconclusive
Clc1ccc(-n2nnnc2CN2CCOCC2)cc1,AC50,[10],inconclusive
same,AC50,[17],inconclusive
O=[N+]([O-])c1cccc(/C=N/Nc2nc(NCc3ccccc3)nc(N3CCOCC3)n2)c1O,EC50,[18],15 µM (active)
same,IC50,[19],6.2 µM (active)
same,CC50,[1],14.7 µM (active)
same,EC50,[20],> 350 µM (not active)
same,EC50,[21],13.4 µM (active)
same,IC50,[2],12.2 µM (active)
same,EC50,[22],11.4 µM (active)
same,EC50,[23],14.1 µM (active)
O=C(O)[C@H]1C[C@H](C(=O)O)N1,AC50,[10],inconclusive
